Measured values published in patent publication US11524968B2, “Heterocyclic compound as a protein kinase inhibitor” (HK inno.N Corporation, priority 2017, dated 2022).

Biological target: JAK1 (Homo sapiens (Human), UniProt P23458)
Experiment: Analysis of JAK1 activity inhibition ability (ADP-Glo Kinase Assay)
Assay type: biochemical
Settings: JAK1 enzyme, ADP-Glo luminescence, ATP 250 uM, IRS-itide substrate, 30° C. 40 minutes; read-out: IC50
Outline: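 JAK1 enzyme, IRS-itide substrate (40 ng/mL) and 250 uM ATP, both as prepared in kinase buffer (Tris-HCl pH 7.5, MgCl2, BSA, DTT), reacted with compound 40 min at 30 °C. ADP formed was detected by ADP-Glo luminescence; IC50 is the concentration giving 50% inhibition versus control.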

JAK1, sequence (P23458 whole entry): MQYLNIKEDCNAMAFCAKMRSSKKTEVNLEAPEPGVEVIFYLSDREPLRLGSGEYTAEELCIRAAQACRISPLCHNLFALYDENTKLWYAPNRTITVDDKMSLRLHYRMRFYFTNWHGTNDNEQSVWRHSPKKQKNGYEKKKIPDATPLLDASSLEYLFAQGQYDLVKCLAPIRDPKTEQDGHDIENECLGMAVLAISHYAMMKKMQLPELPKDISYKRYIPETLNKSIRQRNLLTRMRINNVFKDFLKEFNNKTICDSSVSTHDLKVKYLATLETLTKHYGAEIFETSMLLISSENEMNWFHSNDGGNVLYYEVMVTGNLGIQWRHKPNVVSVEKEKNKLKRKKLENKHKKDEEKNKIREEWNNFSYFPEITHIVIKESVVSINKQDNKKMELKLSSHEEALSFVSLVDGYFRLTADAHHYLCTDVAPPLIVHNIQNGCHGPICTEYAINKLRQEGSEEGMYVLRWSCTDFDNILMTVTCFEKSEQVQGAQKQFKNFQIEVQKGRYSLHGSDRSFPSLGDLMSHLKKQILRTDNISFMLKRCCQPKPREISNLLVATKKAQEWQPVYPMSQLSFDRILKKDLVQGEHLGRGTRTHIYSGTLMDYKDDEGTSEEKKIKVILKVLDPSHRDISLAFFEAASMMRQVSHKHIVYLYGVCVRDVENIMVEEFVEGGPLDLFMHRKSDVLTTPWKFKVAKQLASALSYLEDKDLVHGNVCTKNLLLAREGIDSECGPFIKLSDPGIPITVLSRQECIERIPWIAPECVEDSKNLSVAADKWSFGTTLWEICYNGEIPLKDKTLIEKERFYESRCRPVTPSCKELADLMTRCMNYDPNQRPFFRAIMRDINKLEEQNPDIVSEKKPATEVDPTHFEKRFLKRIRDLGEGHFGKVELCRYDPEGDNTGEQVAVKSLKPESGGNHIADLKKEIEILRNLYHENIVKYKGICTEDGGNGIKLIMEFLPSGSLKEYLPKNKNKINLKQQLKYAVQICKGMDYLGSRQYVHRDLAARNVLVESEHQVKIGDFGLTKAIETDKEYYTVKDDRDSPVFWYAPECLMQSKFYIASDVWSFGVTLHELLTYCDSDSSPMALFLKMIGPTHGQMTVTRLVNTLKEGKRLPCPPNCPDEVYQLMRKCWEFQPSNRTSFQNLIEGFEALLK

| Compound | IC50 |
| --- | --- |
| N#C[C@H]1CCCN1C(=O)CN1C2CCC1CN(c1cc(NC(=O)C3CC3)nc3[nH]ccc13)C2 [Example 703, N-(4-(8-(2-((R)-2-cyanopyrrolidin-1-yl)-2-oxoethyl)-3,8-diazabicyclo[3.2.1]octan-3-yl)-1H-pyrrolo[2,3-b]pyridin-6-yl)cyclopropanecarboxamide] | > 200 nM |
| O=C(Nc1nc(N2CC3CCC(C2)N3CC(=O)N2CCS(=O)(=O)CC2)c2cc[nH]c2n1)C1CC1 [Example 704, N-(4-(8-(2-(1,1-dioxidothiomorpholino)-2-oxoethyl)-3,8-diazabicyclo[3.2.1]octan-3-yl)-7H-pyrrolo[2,3-d]pyrimidin-2-yl)cyclopropanecarboxamide] | > 200 nM |
| CCS(=O)(=O)Nc1ccc(-c2cc(NC(=O)C(C)C)nc3[nH]ccc23)cc1F [Example 711, N-(4-(4-(ethylsulfonamido)-3-fluorophenyl)-1H-pyrrolo[2,3-b]pyridin-6-yl)isobutyramide] | > 200 nM |
| CCS(=O)(=O)Nc1ccc(-c2cc(NCC3CC3)nc3[nH]ccc23)cc1F [Example 713, N-(4-(6-((cyclopropylmethyl)amino)-1H-pyrrolo[2,3-b]pyridin-4-yl)-2-fluorophenyl)ethanesulfonamide] | > 200 nM |
| CCS(=O)(=O)Nc1ccc(-c2cc(NS(=O)(=O)C3CC3)nc3[nH]ccc23)cc1F [Example 716, N-(4-(4-(ethylsulfonamido)-3-fluorophenyl)-1H-pyrrolo[2,3-b]pyridin-6-yl)cyclopropanesulfonamide] | > 200 nM |
| O=C(Nc1cc(-c2ccc(CN3CCS(=O)(=O)CC3)cc2)c2cc[nH]c2n1)NC1CC1 [Example 717, 1-cyclopropyl-3-(4-(4-((1,1-dioxidothiomorpholino)methyl)phenyl)-1H-pyrrolo[2,3-b]pyridin-6-yl)urea] | 20 to 200 nM |
| CN(C)c1nc(-c2ccc(NS(=O)(=O)c3ccc(F)c(F)c3)cc2)c2cc[nH]c2n1 [Example 718, N-(4-(2-(dimethylamino)-7H-pyrrolo[2,3-d]pyrimidin-4-yl)phenyl)-3,4-difluorobenzenesulfonamide] | > 200 nM |
| CCS(=O)(=O)Nc1ccc(-c2nc(Nc3ccccc3)nc3[nH]ccc23)cc1F [Example 719, N-(2-fluoro-4-(2-(phenylamino)-7H-pyrrolo[2,3-d]pyrimidin-4-yl)phenyl)ethanesulfonamide] | 20 to 200 nM |
| CCS(=O)(=O)Nc1ccc(-c2nc(Nc3ccccc3)nc3[nH]ccc23)cc1 [Example 720, N-(4-(2-(phenylamino)-7H-pyrrolo[2,3-d]pyrimidin-4-yl)phenyl)ethanesulfonamide] | 20 to 200 nM |
| N#CCC(=O)N1C2CCC1CN(c1nc(Nc3ccccc3)nc3[nH]ccc13)C2 [Example 721, 3-oxo-3-(3-(2-(phenylamino)-7H-pyrrolo[2,3-d]pyrimidin-4-yl)-3,8-diazabicyclo[3.2.1]octan-8-yl)propanenitrile] | 20 to 200 nM |

Results, then the molecule that gave them:

| IC50 | Compound |
| --- | --- |
| > 200 nM | O=C(Nc1cc(N2CCN(CC(=O)N3CCS(=O)(=O)CC3)CC2)c2cc[nH]c2n1)C1CC1 [Example 702, N-(4-(4-(2-(1,1-dioxidothiomorpholino)-2-oxoethyl)piperazin-1-yl)-1H-pyrrolo[2,3-b]pyridin-6-yl)cyclopropanecarboxamide] |
| > 200 nM | C[C@@H]1CN(C(=O)CC#N)CC=C1c1cc(N)nc2[nH]ccc12 [Example 705, (S)-3-(4-(6-amino-1H-pyrrolo[2,3-b]pyridin-4-yl)-3-methyl-3,6-dihydropyridin-1 (2H)-yl)-3-oxopropanenitrile] |
| 20 to 200 nM | CCS(=O)(=O)Nc1ccc(-c2cc(NC(C)=O)nc3[nH]ccc23)cc1F [Example 710, N-(4-(4-(ethylsulfonamido)-3-fluorophenyl)-1H-pyrrolo[2,3-b]pyridin-6-yl)acetamide] |
| > 200 nM | CCCC(=O)Nc1cc(-c2ccc(NS(=O)(=O)CC)c(F)c2)c2cc[nH]c2n1 [Example 712, N-(4-(4-(ethylsulfonamido)-3-fluorophenyl)-1H-pyrrolo[2,3-b]pyridin-6-yl)butyramide] |
| > 200 nM | CCS(=O)(=O)Nc1ccc(-c2cc(N/C(=N\C)C3CC3)nc3[nH]ccc23)cc1 [Example 714, (Z)—N-(4-(4-(ethylsulfonamido)phenyl)-1H-pyrrolo[2,3-b]pyridin-6-yl)-N′-methylcyclopropanecarboximidamide] |
| 20 to 200 nM | CCS(=O)(=O)Nc1ccc(-c2cc(NC(=S)C3CC3)nc3[nH]ccc23)cc1 [Example 715, N-(4-(4-(ethylsulfonamido)phenyl)-1H-pyrrolo[2,3-b]pyridin-6-yl)cyclopropanecarbothioamide] |
